Test results as given in patent US9890133B2 (priority 2011, dated 2018).
In brackets after ≈: the same amount, converted by molar mass.

Experiments:
Poliovirus 3 = assay: microbe, parasite or virus in culture; type: cell-based; conditions: Enterovirus C, read-out: Poliovirus3 EC50
in vitro = conditions: human

SMILES | EC50 (Poliovirus 3) | CC50 (in vitro) | CC50 (in vitro; Picorana CC50)
Cc1cc(C(=O)NC23C(=O)c4c(N)cccc4C2(O)Oc2cc(C(C)C)ccc23)ccn1 (stereo not shown) [Example 249, N-(1-Amino-4b-hydroxy-7-isopropyl-10-oxo-9b,10-dihydro-4bH-indeno[1,2-b]benzofuran-9b-yl)-2-methylisonicotinamide] | < 0.01 µg/mL | > 10 µg/mL | 
CC(C)c1ccc2c(c1)OC1(O)c3cccc(N)c3C(=O)C21NC(=O)c1ccncc1F (stereo not shown) [Example 250, N-(1-Amino-4b-hydroxy-7-isopropyl-10-oxo-9b,10-dihydro-4bH-indeno[1,2-b]benzofuran-9b-yl)-3-fluoroisonicotinamide] | < 0.01 µg/mL | > 10 µg/mL | 
CC(C)c1ccc2c(c1)OC1(O)c3cccc(N)c3C(=O)C21NC(=O)c1ccncc1Cl (stereo not shown) [Example 251, N-(1-Amino-4b-hydroxy-7-isopropyl-10-oxo-9b,10-dihydro-4bH-indeno[1,2-b]benzofuran-9b-yl)-3-chloroisonicotinamide] | < 0.01 µg/mL | > 10 µg/mL | 
CC(C)c1ccc2c(c1)OC1(O)c3cccc(N)c3C(=O)C21NC(=O)c1nccn1C (stereo not shown) [Example 252, N-(1-Amino-4b-hydroxy-7-isopropyl-10-oxo-9b,10-dihydro-4bH-indeno[1,2-b]benzofuran-9b-yl)-1-methyl-1H-imidazole-2-carboxamide] | < 0.01 µg/mL | 3.53 µg/mL (≈ 8.44 µM) | 3.64 µg/mL (≈ 8.7 µM)
CC(C)c1ccc2c(c1)OC1(O)c3cccc(N)c3C(=O)C21NC(=O)c1cccc[n+]1[O-] (stereo not shown) [Example 253, 2-((1-Amino-4b-hydroxy-7-isopropyl-10-oxo-9b,10-dihydro-4bH-indeno[1,2-b]benzofuran-9b-yl)carbamoyl)pyridine 1-oxide] | < 0.01 µg/mL | > 10 µg/mL | 
CC(C)c1ccc2c(c1)OC1(O)c3cccc(N)c3C(=O)C21NC(=O)c1cncc(F)c1 (stereo not shown) [Example 255, N-(1-Amino-4b-hydroxy-7-isopropyl-10-oxo-9b,10-dihydro-4bH-indeno[1,2-b]benzofuran-9b-yl)-5-fluoronicotinamide] | < 0.01 µg/mL | > 10 µg/mL | 
CC(C)c1ccc2c(c1)OC1(O)c3cccc(N)c3C(=O)C21NC(=O)c1cncc(O)c1 (stereo not shown) [Example 256, N-(1-Amino-4b-hydroxy-7-isopropyl-10-oxo-9b,10-dihydro-4bH-indeno[1,2-b]benzofuran-9b-yl)-5-hydroxynicotinamide] | < 0.01 µg/mL | > 10 µg/mL | 
CC(C)c1ccc2c(c1)OC1(O)c3cccc(N)c3C(=O)C21NC(=O)c1ncccc1O (stereo not shown) [Example 257, N-(1-Amino-4b-hydroxy-7-isopropyl-10-oxo-9b,10-dihydro-4bH-indeno[1,2-b]benzofuran-9b-yl)-3-hydroxypicolinamide] | 0.031 µg/mL (≈ 0.0719 µM) | > 10 µg/mL | 
Cc1ccncc1C(=O)NC12C(=O)c3c(N)cccc3C1(O)Oc1cc(C(C)C)ccc12 (stereo not shown) [Example 258, N-(1-Amino-4b-hydroxy-7-isopropyl-10-oxo-9b,10-dihydro-4bH-indeno[1,2-b]benzofuran-9b-yl)-4-methylnicotinamide] | 0.04 µg/mL (≈ 0.0931 µM) | > 10 µg/mL | 
Cc1cncc(C(=O)NC23C(=O)c4c(N)cccc4C2(O)Oc2cc(C(C)C)ccc23)c1 (stereo not shown) [Example 259, N-(1-Amino-4b-hydroxy-7-isopropyl-10-oxo-9b,10-dihydro-4bH-indeno[1,2-b]benzofuran-9b-yl)-5-methylnicotinamide] | < 0.01 µg/mL | > 10 µg/mL | 
Cc1cc2c(cc1C)C1(NC(=O)c3cccnc3)C(=O)c3c(N)cccc3C1(O)O2 (stereo not shown) [Example 260, N-(1-Amino-4b-hydroxy-7,8-dimethyl-10-oxo-9b,10-dihydro-4bH-indeno[1,2-b]benzofuran-9b-yl)nicotinamide] | 0.04 µg/mL (≈ 0.0996 µM) | > 10 µg/mL | 
COc1cncc(C(=O)NC23C(=O)c4c(N)cccc4C2(O)Oc2cc(C(C)C)ccc23)c1 (stereo not shown) [Example 261, N-(1-Amino-4b-hydroxy-7-isopropyl-10-oxo-9b,10-dihydro-4bH-indeno[1,2-b]benzofuran-9b-yl)-5-methoxynicotinamide] | < 0.01 µg/mL | > 10 µg/mL | 
Cc1cc2c(cc1C)C1(NC(=O)c3ccc4ncccc4c3)C(=O)c3c(N)cccc3C1(O)O2 (stereo not shown) [Example 262, N-(1-Amino-4b-hydroxy-7,8-dimethyl-10-oxo-9b,10-dihydro-4bH-indeno[1,2-b]benzofuran-9b-yl)quinoline-6-carboxamide] | 0.0124 µg/mL (≈ 0.0275 µM) | > 10 µg/mL | 
CC(C)c1ccc2c(c1)OC1(O)c3cccc(N)c3C(=O)C21NC(=O)c1ccc2ccccc2n1 (stereo not shown) [Example 263] | 0.039 µg/mL (≈ 0.0838 µM) | 5.4 µg/mL (≈ 11.6 µM) | 7.65 µg/mL (≈ 16.4 µM)
CC(C)c1ccc2c(c1)OC1(O)c3cccc(N)c3C(=O)C21NC(=O)c1cc2ccccc2[nH]1 (stereo not shown) [Example 265] | < 0.01 µg/mL | 4.4 µg/mL (≈ 9.7 µM) | 4.75 µg/mL (≈ 10.5 µM)
CC(C)c1ccc2c(c1)OC1(O)c3cccc(N)c3C(=O)C21NC(=O)c1nccc2ccccc12 (stereo not shown) [Example 266, N-(1-Amino-4b-hydroxy-7-isopropyl-10-oxo-9b,10-dihydro-4bH-benzo[d]indeno[1,2-b]furan-9b-yl)isoquinoline-1-carboxamide] | < 0.01 µg/mL | > 10 µg/mL | 6.41 µg/mL (≈ 13.8 µM)
CC(C)c1ccc2c(c1)OC1(O)c3cccc(N)c3C(=O)C21NC(=O)c1cc2ccccc2n1C (stereo not shown) [Example 268, N-(1-Amino-4b-hydroxy-7-isopropyl-10-oxo-9b,10-dihydro-4bH-indeno[1,2-b]benzofuran-9b-yl)-1-methyl-1H-indole-2-carboxamide] | 0.036 µg/mL (≈ 0.077 µM) | > 10 µg/mL | 9.28 µg/mL (≈ 19.8 µM)
Cc1nn(C)c2ncc(C(=O)NC34C(=O)c5c(N)cccc5C3(O)Oc3cc(C(C)C)ccc34)cc12 (stereo not shown) [Example 271, N-(1-Amino-4b-hydroxy-7-isopropyl-10-oxo-9b,10-dihydro-4bH-indeno[1,2-b]benzofuran-9b-yl)-1,3-dimethyl-1H-pyrazolo[3,4-b]pyridine-5-carboxamide] | < 0.01 µg/mL | > 10 µg/mL | 
CC(C)c1ccc2c(c1)OC1(O)c3cccc(N)c3C(=O)C21NC(=O)c1ccc2nccn2c1 (stereo not shown) [Example 272, N-(1-Amino-4b-hydroxy-7-isopropyl-10-oxo-9b,10-dihydro-4bH-indeno[1,2-b]benzofuran-9b-yl)imidazo[1,2-a]pyridine-6-carboxamide] | < 0.01 µg/mL | > 10 µg/mL | 
CC(C)c1ccc2c(c1)OC1(O)c3cccc(N)c3C(=O)C21NC(=O)c1cc2ncccn2n1 (stereo not shown) [Example 273, N-(1-Amino-4b-hydroxy-7-isopropyl-10-oxo-9b,10-dihydro-4bH-indeno[1,2-b]benzofuran-9b-yl)pyrazolo[1,5-a]pyrimidine-2-carboxamide] | < 0.01 µg/mL | > 10 µg/mL | 
Cc1c(C(=O)NC23C(=O)c4c(N)cccc4C2(O)Oc2cc(C(C)C)ccc23)sc2ccccc12 (stereo not shown) [Example 274, N-(1-Amino-4b-hydroxy-7-isopropyl-10-oxo-9b,10-dihydro-4bH-indeno[1,2-b]benzofuran-9b-yl)-3-methylbenzo[b]thiophene-2-carboxamide] | 0.036 µg/mL (≈ 0.0743 µM) | > 10 µg/mL | 
CC(C)c1ccc2c(c1)OC1(O)c3cccc(N)c3C(=O)C21NC(=O)c1cnc2ccccc2n1 (stereo not shown) [Example 275, N-(1-Amino-4b-hydroxy-7-isopropyl-10-oxo-9b,10-dihydro-4bH-indeno[1,2-b]benzofuran-9b-yl)quinoxaline-2-carboxamide] | 0.035 µg/mL (≈ 0.075 µM) | 4.55 µg/mL (≈ 9.75 µM) | 4.78 µg/mL (≈ 10.2 µM)
CC(C)c1ccc2c(c1)OC1(O)c3cccc(N)c3C(=O)C21NC(=O)c1ccnnc1 (stereo not shown) [Example 276, N-(1-Amino-4b-hydroxy-7-isopropyl-10-oxo-9b,10-dihydro-4bH-indeno[1,2-b]benzofuran-9b-yl)pyridazine-4-carboxamide] | < 0.01 µg/mL | > 10 µg/mL | 
CC(C)c1ccc2c(c1)OC1(O)c3cccc(N)c3C(=O)C21NC(=O)c1ccc2nnnn2c1 (stereo not shown) [Example 278, N-(1-Amino-4b-hydroxy-7-isopropyl-10-oxo-9b,10-dihydro-4bH-indeno[1,2-b]benzofuran-9b-yl)tetrazolo[1,5-a]pyridine-6-carboxamide] | < 0.01 µg/mL | > 10 µg/mL | 
CC(C)c1ccc2c(c1)OC1(O)c3cccc(N)c3C(=O)C21NC(=O)c1cccn2nnnc12 (stereo not shown) [Example 279, N-(1-Amino-4b-hydroxy-7-isopropyl-10-oxo-9b,10-dihydro-4bH-indeno[1,2-b]benzofuran-9b-yl)tetrazolo[1,5-a]pyridine-8-carboxamide] | 0.035 µg/mL (≈ 0.0767 µM) | 4.94 µg/mL (≈ 10.8 µM) | 7.88 µg/mL (≈ 17.3 µM)
Cc1ccnc2nc(C(=O)NC34C(=O)c5c(N)cccc5C3(O)Oc3cc(C(C)C)ccc34)nn12 (stereo not shown) [Example 281, N-(1-Amino-4b-hydroxy-7-isopropyl-10-oxo-9b,10-dihydro-4bH-indeno[1,2-b]benzofuran-9b-yl)-7-methyl-[1,2,4]triazolo[1,5-a]pyrimidine-2-carboxamide] | 0.025 µg/mL (≈ 0.0531 µM) | > 10 µg/mL | 
CC(C)c1ccc2c(c1)OC1(O)c3cccc(N)c3C(=O)C21NC(=O)c1cn2cccnc2n1 (stereo not shown) [Example 285, N-(1-Amino-4b-hydroxy-7-isopropyl-10-oxo-9b,10-dihydro-4bH-indeno[1,2-b]benzofuran-9b-yl)imidazo[1,2-a]pyrimidine-2-carboxamide] | < 0.01 µg/mL | > 10 µg/mL | 
CC(C)c1ccc2c(c1)OC1(O)c3cccc(N)c3C(=O)C21NC(=O)c1cc2ccccc2c(=O)[nH]1 (stereo not shown) [Example 286, N-(1-Amino-4b-hydroxy-7-isopropyl-10-oxo-9b,10-dihydro-4bH-indeno[1,2-b]benzofuran-9b-yl)-1-oxo-1,2-dihydroisoquinoline-3-carboxamide] | < 0.01 µg/mL | 4.04 µg/mL (≈ 8.39 µM) | 4.28 µg/mL (≈ 8.89 µM)
Cc1nc(C(=O)NC23C(=O)c4c(N)cccc4C2(O)Oc2cc(C(C)C)ccc23)c2ccccn12 (stereo not shown) [Example 287, N-(1-Amino-4b-hydroxy-7-isopropyl-10-oxo-9b,10-dihydro-4bH-benzo[d]indeno[1,2-b]furan-9b-yl)-3-methylimidazo[1,5-a]pyridine-1-carboxamide] | 0.036 µg/mL (≈ 0.0768 µM) | > 10 µg/mL | 7.01 µg/mL (≈ 15 µM)
CC(C)c1ccc2c(c1)OC1(O)c3cccc(N)c3C(=O)C21NC(=O)c1nc2ccccc2[nH]1 (stereo not shown) [Example 290, N-(1-Amino-4b-hydroxy-7-isopropyl-10-oxo-9b,10-dihydro-4bH-indeno[1,2-b]benzofuran-9b-yl)-1H-benzo[d]imidazole-2-carboxamide] | 0.032 µg/mL (≈ 0.0704 µM) | 4.51 µg/mL (≈ 9.92 µM) | 4.32 µg/mL (≈ 9.51 µM)
